What was measured:
[1] = tested on: central benzodiazepine receptors; test: Central benzodiazepine receptor binding (test of Speth et al.); settings: 1000 nM of the compound
Method in brief: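 Values are percent inhibition of central benzodiazepine receptor binding at 1000 nM compound (initial single-point screen at 1.0E-09, 1.0E-07 and 1.0E-05 M). Speth et al. binding test; nonspecific binding defined with excess unlabelled ligand and subtracted from total.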

[2] = target: T1, α1 subtype containing GABA-A receptors (Homo sapiens, UniProt P14867+P18507); test: Two-electrode voltage clamp electrophysiology in Xenopus oocytes, potentiation of GABA EC20 response, α1; assay type: cell-based; settings: 100 nM compound; for activation at 0.1 µM: read-out: Percentage of potentiation alpha1
T1 construct: expressed in transfected cells; host or cells: Xenopus laevis oocytes, cRNA injected
Method in brief: (§1)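 TEVC, oocytes expressing human αx/β3/γ2L GABA-A; Vh −80 mV; ND96 pH 7.5 perfusion. 3 × 20-s GABA EC20 (60 μM) baseline → 1 μM CDP standard → compound 100 nM. Low-current or poorly γ2L-incorporating oocytes excluded.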

[3] = target: T2, α2 subtype containing GABA-A receptors (Homo sapiens, UniProt P18507+P47869); test: Two-electrode voltage clamp electrophysiology in Xenopus oocytes, potentiation of GABA EC20 response, α2; assay type: cell-based; settings: 100 nM compound; for activation at 0.1 µM: read-out: Percentage of potentiation alpha2
T2 construct: expressed in transfected cells; host or cells: Xenopus laevis oocytes, cRNA injected
Method in brief: as §1

[4] = target: T3, α3 subtype containing GABA-A receptors (Homo sapiens, UniProt P18507+P34903); test: Two-electrode voltage clamp electrophysiology in Xenopus oocytes, potentiation of GABA EC20 response, α3; assay type: cell-based; settings: 100 nM compound; for activation at 0.1 µM: read-out: Percentage of potentiation alpha3
T3 construct: expressed in transfected cells; host or cells: Xenopus laevis oocytes, cRNA injected
Method: (§2) Electrophysiology protocol: Oocytes were prepared from adult female Xenopus laevis frogs. cRNA encoding human α1, α2, α3, α5, β3 and γ2L GABAA receptor subunits was injected into the cytoplasm of stage 5 or 6 oocytes using the Robocyte Robot (Multi Channel Systems, Reutlingen, Germany). Two-electrode voltage clamp recordings were made in 96-well plates using the Robocyte Robot. Oocytes were impaled using recording heads with two glass electrodes containing 1.5 M potassium acetate and 0.5 M KCl and held at a membrane potential of −80 mV. Oocytes were continually perfused with a ND96 solution (96 mM NaCl, 2 mM KCl, 0.1 mM CaCl2, and 5 mM HEPES, pH 7.5) using a Gilson 222 XL Liquid Handler and Gilson Minipuls 3 Peristaltic Pump (Gilson Medical Electronics, Middleton, Wis., USA). The protocol consisted of three 20-s applications of GABA that gave a 20% of the maximum response (EC20: 60 μM) to allow for headroom to determine a baseline GABA response. To assess the potentiation, oocytes were first exposed to a single 1 μM chlordiazepoxide (CDP) as a potentiation standard. Oocytes with insufficient expression levels (currents below threshold) or insufficient γ2L subunit incorporation (judged by rapid desensitization upon GABA application, or by insufficient potentiation by CDP) were not included in analysis. Following this control application, a given oocyte was exposed to test compounds at 100 nM concentrations. Only one concentration of one compound was tested per oocyte. […] One skilled in the art will recognize that subtypes contribute to the effects of GABA-A modulators. Such that compounds favoring different subtypes can have different therapeutic effects. The magnitude of modulation, for example, partial modulators can influence the effects in vivo. “++” indicates a greater modulation that “+” so that at any given subtype “++” inducates a greater amount of modulation for that subtype. In some embodiments, modulation favoring alpha 1 relative to alpha2 and/or alpha 3 can have sedative hypnotic effects. In other embodiments, compounds with reduced selectivity of alpha 1 can express anxiolytic effects with less sedation. Compounds with selectivity for alpha 5 can have memory/cognition enhancing effects.

[5] = target: T4, α5 subtype containing GABA-A receptors (Homo sapiens, UniProt P18507+P31644); test: Two-electrode voltage clamp electrophysiology in Xenopus oocytes, potentiation of GABA EC20 response, α5; assay type: cell-based; settings: 100 nM compound; for activation at 0.1 µM: read-out: Percentage of potentiation alpha5
T4 construct: expressed in transfected cells; host or cells: Xenopus laevis oocytes, cRNA injected
Method: as §2

T3 sequence (P34903 29-492): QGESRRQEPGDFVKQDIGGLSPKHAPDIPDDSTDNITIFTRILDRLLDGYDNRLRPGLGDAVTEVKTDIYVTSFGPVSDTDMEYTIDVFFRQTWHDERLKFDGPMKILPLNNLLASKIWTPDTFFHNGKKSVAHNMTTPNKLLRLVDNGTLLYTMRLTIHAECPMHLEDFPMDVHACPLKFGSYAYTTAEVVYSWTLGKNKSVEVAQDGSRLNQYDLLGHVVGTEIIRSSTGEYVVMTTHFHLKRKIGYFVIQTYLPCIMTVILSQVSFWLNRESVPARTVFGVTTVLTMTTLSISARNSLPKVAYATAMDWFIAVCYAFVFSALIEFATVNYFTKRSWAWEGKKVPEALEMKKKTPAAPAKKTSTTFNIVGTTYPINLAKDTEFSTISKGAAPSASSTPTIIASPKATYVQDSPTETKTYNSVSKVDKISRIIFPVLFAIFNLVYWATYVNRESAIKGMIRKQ
T3 sequence (P28472 26-473 partner): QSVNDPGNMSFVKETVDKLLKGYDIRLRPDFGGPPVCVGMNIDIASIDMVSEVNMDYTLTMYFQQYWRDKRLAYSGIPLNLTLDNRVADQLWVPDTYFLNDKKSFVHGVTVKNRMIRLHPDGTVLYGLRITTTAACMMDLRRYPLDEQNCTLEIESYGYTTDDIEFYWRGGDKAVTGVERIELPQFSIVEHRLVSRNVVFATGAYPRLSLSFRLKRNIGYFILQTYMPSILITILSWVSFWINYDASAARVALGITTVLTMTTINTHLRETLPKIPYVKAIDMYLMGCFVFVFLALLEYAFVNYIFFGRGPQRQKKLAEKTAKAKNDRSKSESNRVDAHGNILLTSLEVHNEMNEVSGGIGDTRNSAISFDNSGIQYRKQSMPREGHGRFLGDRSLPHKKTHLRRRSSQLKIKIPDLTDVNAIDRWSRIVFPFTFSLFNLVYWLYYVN
T3 sequence (P18507 40-475): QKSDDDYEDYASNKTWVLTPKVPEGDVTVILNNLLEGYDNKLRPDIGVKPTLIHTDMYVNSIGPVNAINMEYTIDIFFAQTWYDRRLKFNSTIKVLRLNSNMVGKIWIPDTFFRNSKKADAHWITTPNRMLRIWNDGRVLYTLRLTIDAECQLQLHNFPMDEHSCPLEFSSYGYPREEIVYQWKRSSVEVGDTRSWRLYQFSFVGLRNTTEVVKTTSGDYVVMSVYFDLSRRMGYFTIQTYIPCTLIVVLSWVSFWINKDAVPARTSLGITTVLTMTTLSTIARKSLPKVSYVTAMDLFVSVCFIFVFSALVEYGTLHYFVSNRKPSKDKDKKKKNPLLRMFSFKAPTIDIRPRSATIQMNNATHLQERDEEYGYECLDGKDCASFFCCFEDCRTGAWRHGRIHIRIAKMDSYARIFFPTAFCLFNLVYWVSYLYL
T4 sequence (P31644 32-462): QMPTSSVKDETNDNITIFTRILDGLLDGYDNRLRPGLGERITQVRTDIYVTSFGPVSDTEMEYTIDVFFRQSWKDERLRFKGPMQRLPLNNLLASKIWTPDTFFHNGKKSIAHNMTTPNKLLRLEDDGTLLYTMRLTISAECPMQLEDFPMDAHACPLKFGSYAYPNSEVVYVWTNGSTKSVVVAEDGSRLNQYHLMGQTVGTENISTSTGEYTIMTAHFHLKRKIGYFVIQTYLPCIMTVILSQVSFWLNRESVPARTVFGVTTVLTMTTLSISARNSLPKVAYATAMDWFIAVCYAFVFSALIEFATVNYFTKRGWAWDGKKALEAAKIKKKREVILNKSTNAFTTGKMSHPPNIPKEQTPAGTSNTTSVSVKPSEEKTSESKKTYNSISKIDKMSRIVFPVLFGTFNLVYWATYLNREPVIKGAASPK
T4 sequence (P28472 26-473 partner): as the sequence (P28472 26-473 partner) above
T4 sequence (P18507 40-475): as the sequence (P18507 40-475) above
T2 sequence (P47869 29-451): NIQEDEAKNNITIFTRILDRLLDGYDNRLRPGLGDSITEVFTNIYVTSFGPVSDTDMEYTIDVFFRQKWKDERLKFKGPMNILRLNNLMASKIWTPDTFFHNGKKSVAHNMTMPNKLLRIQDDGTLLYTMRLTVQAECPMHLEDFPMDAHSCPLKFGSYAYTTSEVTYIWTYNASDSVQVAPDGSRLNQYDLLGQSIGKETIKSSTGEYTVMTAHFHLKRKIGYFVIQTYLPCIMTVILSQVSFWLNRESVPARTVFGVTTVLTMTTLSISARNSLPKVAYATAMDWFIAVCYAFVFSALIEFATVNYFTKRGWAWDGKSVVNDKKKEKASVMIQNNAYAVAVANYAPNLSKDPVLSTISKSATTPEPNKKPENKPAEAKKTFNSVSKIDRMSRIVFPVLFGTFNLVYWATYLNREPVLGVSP
T2 sequence (P28472 26-473 partner): as the sequence (P28472 26-473 partner) above
T2 sequence (P18507 40-475): as the sequence (P18507 40-475) above
T1 sequence (P14867 28-456): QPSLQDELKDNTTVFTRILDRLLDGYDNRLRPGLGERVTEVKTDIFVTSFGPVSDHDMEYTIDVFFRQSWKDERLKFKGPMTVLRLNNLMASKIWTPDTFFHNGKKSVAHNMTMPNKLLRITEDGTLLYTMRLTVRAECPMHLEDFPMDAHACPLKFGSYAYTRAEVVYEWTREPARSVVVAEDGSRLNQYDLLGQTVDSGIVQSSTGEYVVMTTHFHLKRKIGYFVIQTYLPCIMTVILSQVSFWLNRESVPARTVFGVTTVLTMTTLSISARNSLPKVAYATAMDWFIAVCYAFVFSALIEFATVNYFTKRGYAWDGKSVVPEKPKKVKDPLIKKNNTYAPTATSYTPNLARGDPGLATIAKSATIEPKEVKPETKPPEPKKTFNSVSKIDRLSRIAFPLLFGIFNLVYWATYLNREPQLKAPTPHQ
T1 sequence (P28472 26-473 partner): as the sequence (P28472 26-473 partner) above
T1 sequence (P18507 40-475): as the sequence (P18507 40-475) above

Compound | % Inhibition at 1000 nM for CBZD [1] | activation at 0.1 µM [2] [%] | activation at 0.1 µM [3] [%] | activation at 0.1 µM [4] [%] | activation at 0.1 µM [5] [%] | Percentage of potentiation alpha1 [2] | Percentage of potentiation alpha2 [3] | Percentage of potentiation alpha3 [4] | Percentage of potentiation alpha5 [5]
O=C1C=C(N2CCC(O)C2)CN1Cc1c(-c2ccc(Cl)cc2)nc2ccccn12 (centres unmarked) [Compound 240, 1-((2-(4-chlorophenyl)imidazo[1,2-a]pyridin-3-yl)methyl)-4-(3-hydroxypyrrolidin-1-yl)-1H-pyrrol-2(5H)-one] | ++ (percentage of inhibition of central BZD site binding is greater than 80% in the presence of 1000 nM of the compound) | ≥ 50 | 10 to 50 | -10 to 10 | -10 to 10 |  |  |  | 
Clc1ccc(-c2nc3ccccn3c2Cc2nnc(-c3ccccn3)[nH]2)cc1 [Compound 230, 2-(4-chlorophenyl)-3-((5-(pyridin-2-yl)-4H-1,2,4-triazol-3-yl)methyl)imidazo[1,2-a]pyridine] | ++ (percentage of inhibition of central BZD site binding is greater than 80% in the presence of 1000 nM of the compound) | 10 to 50 | 10 to 50 | 10 to 50 | 10 to 50 |  |  |  | 
Cc1ccc(-c2nc3ccc(C)cn3c2Cn2cnc3ncccc32)cc1 [Compound 15, 1-((6-Methyl-2-p-tolylH-imidazo[1,2-a]pyridin-3-yl)methyl)-1H-imidazo[4,5-b]pyridine] | ++ (percentage of inhibition of central BZD site binding is greater than 80% in the presence of 1000 nM of the compound) |  |  |  |  | + (percentage of potentiation is greater than or equal to 10% but less than 50% in the presence of 100 nM of the compound) | + (percentage of potentiation is greater than or equal to 10% but less than 50% in the presence of 100 nM of the compound) | + (percentage of potentiation is greater than or equal to 10% but less than 50% in the presence of 100 nM of the compound) | 0 (percentage of potentiation is between about 10% to about −10%)
O=c1cc(Cl)n(Cc2c(-c3ccc(Cl)cc3)nc3ccccn23)c(=O)[nH]1 [Compound 128, 6-chloro-1-((2-(4-chlorophenyl)imidazo[1,2-a]pyridin-3-yl)methyl)pyrimidine-2,4(1H,3H)-dione] | ++ (percentage of inhibition of central BZD site binding is greater than 80% in the presence of 1000 nM of the compound) | -10 to 10 | 10 to 50 | -10 to 10 | 10 to 50 |  |  |  | 
COC(=O)c1ncnn1Cc1c(-c2ccc(Cl)cc2)nc2ccc(Cl)cn12 [Compound 21, Methyl 2-((6-chloro-2-(4-chlorophenyl)H-imidazo[1,2-a]pyridin-3-yl)methyl)-2H-1,2,4-triazole-3-carboxylate] | ++ (percentage of inhibition of central BZD site binding is greater than 80% in the presence of 1000 nM of the compound) |  |  |  |  | + (percentage of potentiation is greater than or equal to 10% but less than 50% in the presence of 100 nM of the compound) | + (percentage of potentiation is greater than or equal to 10% but less than 50% in the presence of 100 nM of the compound) | + (percentage of potentiation is greater than or equal to 10% but less than 50% in the presence of 100 nM of the compound) | 0 (percentage of potentiation is between about 10% to about −10%)
Cc1ccc(-c2nc3ccc(C)cn3c2Cn2cnc3c(N(C)C)ncnc32)cc1 [Compound 17, N,N-Dimethyl-9-((6-methyl-2-p-tolylH-imidazo[1,2-a]pyridin-3-yl)methyl)-9H-purin-6-amine] | ++ (percentage of inhibition of central BZD site binding is greater than 80% in the presence of 1000 nM of the compound) |  |  |  |  | + (percentage of potentiation is greater than or equal to 10% but less than 50% in the presence of 100 nM of the compound) | + (percentage of potentiation is greater than or equal to 10% but less than 50% in the presence of 100 nM of the compound) | 0 (percentage of potentiation is between about 10% to about −10%) | 0 (percentage of potentiation is between about 10% to about −10%)
CNc1ccn(Cc2c(-c3ccc(Cl)cc3)nc3ccccn23)c(=O)n1 [Compound 133, 1-((2-(4-chlorophenyl)imidazo[1,2-a]pyridin-3-yl)methyl)-4-(methylamino)pyrimidin-2(1H)-one] | ++ (percentage of inhibition of central BZD site binding is greater than 80% in the presence of 1000 nM of the compound) | 10 to 50 | ≥ 50 | -10 to 10 | -10 to 10 |  |  |  | 
Cc1ccnc(NCc2c(-c3ccccc3)nc3ccc(Cl)cn23)n1 [Compound 158, (6-Chloro-2-phenyl-imidazo[1,2-a]pyridin-3-ylmethyl)-(4-methyl-pyrimidin-2-yl)-amine] | ++ (percentage of inhibition of central BZD site binding is greater than 80% in the presence of 1000 nM of the compound) | -10 to 10 | 10 to 50 | 10 to 50 | -10 to 10 |  |  |  | 
NNC(=O)c1nc(Cc2c(-c3ccc(Cl)cc3)nc3ccc(F)cn23)no1 [Compound 216, 3-((2-(4-chlorophenyl)-6-fluoroimidazo[1,2-a]pyridin-3-yl)methyl)-1,2,4-oxadiazole-5-carbohydrazide] |  | 10 to 50 | ≥ 50 | 10 to 50 | -10 to 10 |  |  |  | 
CNC(=O)c1nc(Cc2c(-c3ccc(F)cc3)nc3ccc(F)cn23)no1 [Compound 220, 3-((2-(4-fluorophenyl)-6-fluoroimidazo[1,2-a]pyridin-3-yl)methyl)-1,2,4-oxadiazole-5-N-methyl-carboxamide] |  |  |  |  |  | 0 (percentage of potentiation is between about 10% to about −10%) | + (percentage of potentiation is greater than or equal to 10% but less than 50% in the presence of 100 nM of the compound) | 0 (percentage of potentiation is between about 10% to about −10%) | 0 (percentage of potentiation is between about 10% to about −10%)
Fc1ccc(-c2nc3ccc(F)cn3c2Cn2ccnn2)cc1 [Compound 61, 3-((1H-1,2,3-triazol-1-yl)methyl)-6-fluoro-2-(4-fluorophenyl)H-imidazo[1,2-a]pyridine] | ++ (percentage of inhibition of central BZD site binding is greater than 80% in the presence of 1000 nM of the compound) |  |  |  |  | + (percentage of potentiation is greater than or equal to 10% but less than 50% in the presence of 100 nM of the compound) | + (percentage of potentiation is greater than or equal to 10% but less than 50% in the presence of 100 nM of the compound) | ++ (percentage of potentiation is greater than or equal to 50% in the presence of 100 nM of the compound) | 
COC1=CC(=O)N(Cc2c(-c3ccc(Cl)cc3)nc3ccc(Cl)cn23)C1 [Compound 114, 1-((6-chloro-2-(4-chlorophenyl)H-imidazo[1,2-a]pyridin-3-yl)methyl)-4-methoxy-1H-pyrrol-2(5H)-one] |  |  |  |  |  | ++ (percentage of potentiation is greater than or equal to 50% in the presence of 100 nM of the compound) | + (percentage of potentiation is greater than or equal to 10% but less than 50% in the presence of 100 nM of the compound) | + (percentage of potentiation is greater than or equal to 10% but less than 50% in the presence of 100 nM of the compound) | 0 (percentage of potentiation is between about 10% to about −10%)
